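Cells were grown in 96-well plates and exposed to each compound for 48 hours at five concentrations; endpoints were interpolated linearly between bracketing concentrations, or set to the highest concentration if not reached. TGI marks complete inhibition of growth.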
What was measured:
Assay in all cases: NCI anticancer screen, dose series, 48 h
786-0 renal = test system: 786-0 renal
A498 renal = test system: A498 renal
BT-549 breast = test system: BT-549 breast
CAKI-1 renal = test system: CAKI-1 renal
COLO 205 colon = test system: COLO 205 colon
EKVX NSCLC = test system: EKVX NSCLC
HCT-116 colon = test system: HCT-116 colon
HCT-15 colon = test system: HCT-15 colon
HOP-92 NSCLC = test system: HOP-92 NSCLC
HS 578T breast = test system: HS 578T breast
HT29 colon = test system: HT29 colon
IGROV1 ovarian = test system: IGROV1 ovarian
LOX IMVI melanoma = test system: LOX IMVI melanoma
M14 melanoma = test system: M14 melanoma
MALME-3M melanoma = test system: MALME-3M melanoma
MCF7 breast = test system: MCF7 breast
MDA-MB-231 breast = test system: MDA-MB-231 breast
MDA-MB-435 = test system: MDA-MB-435
MDA-N = test system: MDA-N
NCI-H460 lung = test system: NCI-H460 lung
OVCAR-4 ovarian = test system: OVCAR-4 ovarian
PC-3 prostate = test system: PC-3 prostate
RPMI-8226 leukemia = test system: RPMI-8226 leukemia
RXF 393 renal = test system: RXF 393 renal
SF-295 CNS = test system: SF-295 CNS
SK-MEL-28 melanoma = test system: SK-MEL-28 melanoma
SK-MEL-5 melanoma = test system: SK-MEL-5 melanoma
SNB-19 CNS = test system: SNB-19 CNS
TK-10 renal = test system: TK-10 renal
U251 CNS = test system: U251 CNS
UACC-257 melanoma = test system: UACC-257 melanoma
A549 NSCLC = test system: A549 NSCLC
ACHN renal = test system: ACHN renal
CCRF-CEM leukemia = test system: CCRF-CEM leukemia
DU-145 prostate = test system: DU-145 prostate
HL-60(TB) leukemia = test system: HL-60(TB) leukemia
HOP-62 NSCLC = test system: HOP-62 NSCLC
K-562 leukemia = test system: K-562 leukemia
KM12 colon = test system: KM12 colon
MOLT-4 leukemia = test system: MOLT-4 leukemia
NCI-H226 lung = test system: NCI-H226 lung
NCI-H23 lung = test system: NCI-H23 lung
NCI/ADR-RES ovarian = test system: NCI/ADR-RES ovarian
OVCAR-3 ovarian = test system: OVCAR-3 ovarian
OVCAR-5 ovarian = test system: OVCAR-5 ovarian
OVCAR-8 ovarian = test system: OVCAR-8 ovarian
SF-268 CNS = test system: SF-268 CNS
SF-539 CNS = test system: SF-539 CNS
SK-MEL-2 melanoma = test system: SK-MEL-2 melanoma
SK-OV-3 ovarian = test system: SK-OV-3 ovarian
SN12C renal = test system: SN12C renal
SNB-75 CNS = test system: SNB-75 CNS
SW-620 colon = test system: SW-620 colon
T-47D breast = test system: T-47D breast
UACC-62 melanoma = test system: UACC-62 melanoma
UO-31 renal = test system: UO-31 renal
HCC-2998 colon = test system: HCC-2998 colon
NCI-H522 lung = test system: NCI-H522 lung
SR leukemia = test system: SR leukemia

Structure (SMILES): COc1ccc(-c2oc3cc(OC)ccc3c(=O)c2O)cc1
- TGI (786-0 renal): > 100 µM
- TGI (A498 renal): > 100 µM
- TGI (BT-549 breast): 4.23 µM
- TGI (CAKI-1 renal): 8.33 µM
- TGI (COLO 205 colon): > 100 µM
- TGI (EKVX NSCLC): > 100 µM
- TGI (HCT-116 colon): > 100 µM
- TGI (HCT-15 colon): > 100 µM
- TGI (HOP-92 NSCLC): > 31.6 µM
- TGI (HS 578T breast): 5.53 µM
- TGI (HT29 colon): > 100 µM
- TGI (IGROV1 ovarian): > 31.6 µM
- TGI (LOX IMVI melanoma): > 100 µM
- TGI (M14 melanoma): > 31.6 µM
- TGI (MALME-3M melanoma): > 31.6 µM
- TGI (MCF7 breast): > 31.6 µM
- TGI (MDA-MB-231 breast): > 100 µM
- TGI (MDA-MB-435): > 31.6 µM
- TGI (MDA-N): > 100 µM
- TGI (NCI-H460 lung): > 100 µM
- TGI (OVCAR-4 ovarian): > 31.6 µM
- TGI (PC-3 prostate): > 100 µM
- TGI (RPMI-8226 leukemia): > 31.6 µM
- TGI (RXF 393 renal): 42.6 µM
- TGI (SF-295 CNS): > 100 µM
- TGI (SK-MEL-28 melanoma): > 31.6 µM
- TGI (SK-MEL-5 melanoma): > 100 µM
- TGI (SNB-19 CNS): > 100 µM
- TGI (TK-10 renal): > 100 µM
- TGI (U251 CNS): > 100 µM
- TGI (UACC-257 melanoma): > 100 µM

Structure (SMILES): Nc1cc2nc(-c3ccccc3)cn2cn1
- TGI (786-0 renal): > 100 µM
- TGI (A498 renal): 80.3 µM
- TGI (A549 NSCLC): > 100 µM
- TGI (ACHN renal): > 100 µM
- TGI (BT-549 breast): > 100 µM
- TGI (CAKI-1 renal): > 100 µM
- TGI (CCRF-CEM leukemia): > 100 µM
- TGI (COLO 205 colon): > 100 µM
- TGI (DU-145 prostate): > 100 µM
- TGI (EKVX NSCLC): 95.3 µM
- TGI (HCT-116 colon): > 100 µM
- TGI (HCT-15 colon): > 100 µM
- TGI (HL-60(TB) leukemia): > 100 µM
- TGI (HOP-62 NSCLC): > 100 µM
- TGI (HT29 colon): > 100 µM
- TGI (K-562 leukemia): > 100 µM
- TGI (KM12 colon): > 100 µM
- TGI (LOX IMVI melanoma): > 100 µM
- TGI (M14 melanoma): > 100 µM
- TGI (MALME-3M melanoma): 70 µM
- TGI (MCF7 breast): > 100 µM
- TGI (MDA-MB-231 breast): > 100 µM
- TGI (MDA-MB-435): > 100 µM
- TGI (MDA-N): > 100 µM
- TGI (MOLT-4 leukemia): > 100 µM
- TGI (NCI-H226 lung): > 100 µM
- TGI (NCI-H23 lung): > 100 µM
- TGI (NCI-H460 lung): > 100 µM
- TGI (NCI/ADR-RES ovarian): > 100 µM
- TGI (OVCAR-3 ovarian): > 100 µM
- TGI (OVCAR-4 ovarian): > 100 µM
- TGI (OVCAR-5 ovarian): > 100 µM
- TGI (OVCAR-8 ovarian): > 100 µM
- TGI (PC-3 prostate): > 100 µM
- TGI (RPMI-8226 leukemia): > 100 µM
- TGI (RXF 393 renal): > 100 µM
- TGI (SF-268 CNS): > 100 µM
- TGI (SF-295 CNS): > 100 µM
- TGI (SF-539 CNS): > 100 µM
- TGI (SK-MEL-2 melanoma): > 100 µM
- TGI (SK-MEL-28 melanoma): > 100 µM
- TGI (SK-MEL-5 melanoma): > 100 µM
- TGI (SK-OV-3 ovarian): > 100 µM
- TGI (SN12C renal): > 100 µM
- TGI (SNB-19 CNS): > 100 µM
- TGI (SNB-75 CNS): > 100 µM
- TGI (SW-620 colon): > 100 µM
- TGI (T-47D breast): > 100 µM
- TGI (TK-10 renal): > 100 µM
- TGI (U251 CNS): > 100 µM
- TGI (UACC-62 melanoma): > 100 µM
- TGI (UO-31 renal): > 100 µM

Structure (SMILES): COC(=O)c1ccc2cc(O)ccc2c1
- TGI (786-0 renal): > 100 µM
- TGI (A498 renal): > 100 µM
- TGI (A549 NSCLC): > 100 µM
- TGI (ACHN renal): > 100 µM
- TGI (BT-549 breast): > 100 µM
- TGI (CAKI-1 renal): > 100 µM
- TGI (CCRF-CEM leukemia): > 100 µM
- TGI (COLO 205 colon): > 100 µM
- TGI (DU-145 prostate): > 100 µM
- TGI (EKVX NSCLC): > 100 µM
- TGI (HCC-2998 colon): > 100 µM
- TGI (HCT-116 colon): > 100 µM
- TGI (HCT-15 colon): > 100 µM
- TGI (HOP-62 NSCLC): > 100 µM
- TGI (HOP-92 NSCLC): > 100 µM
- TGI (HT29 colon): > 100 µM
- TGI (IGROV1 ovarian): > 100 µM
- TGI (K-562 leukemia): > 100 µM
- TGI (KM12 colon): > 100 µM
- TGI (LOX IMVI melanoma): > 100 µM
- TGI (M14 melanoma): > 100 µM
- TGI (MALME-3M melanoma): > 100 µM
- TGI (MCF7 breast): > 100 µM
- TGI (MDA-MB-231 breast): > 100 µM
- TGI (MDA-MB-435): > 100 µM
- TGI (MDA-N): > 100 µM
- TGI (MOLT-4 leukemia): > 100 µM
- TGI (NCI-H226 lung): > 100 µM
- TGI (NCI-H23 lung): > 100 µM
- TGI (NCI-H522 lung): > 100 µM
- TGI (NCI/ADR-RES ovarian): > 100 µM
- TGI (OVCAR-3 ovarian): > 100 µM
- TGI (OVCAR-4 ovarian): > 100 µM
- TGI (OVCAR-5 ovarian): > 100 µM
- TGI (OVCAR-8 ovarian): > 100 µM
- TGI (PC-3 prostate): > 100 µM
- TGI (RPMI-8226 leukemia): > 100 µM
- TGI (RXF 393 renal): > 100 µM
- TGI (SF-268 CNS): > 100 µM
- TGI (SF-295 CNS): > 100 µM
- TGI (SF-539 CNS): > 100 µM
- TGI (SK-MEL-2 melanoma): > 100 µM
- TGI (SK-MEL-28 melanoma): > 100 µM
- TGI (SK-MEL-5 melanoma): > 100 µM
- TGI (SK-OV-3 ovarian): > 100 µM
- TGI (SN12C renal): > 100 µM
- TGI (SNB-19 CNS): > 100 µM
- TGI (SR leukemia): 81.9 µM
- TGI (SW-620 colon): > 100 µM
- TGI (T-47D breast): > 100 µM
- TGI (TK-10 renal): > 100 µM
- TGI (U251 CNS): > 100 µM
- TGI (UACC-257 melanoma): > 100 µM
- TGI (UACC-62 melanoma): > 100 µM
- TGI (UO-31 renal): > 100 µM

Reference: PubChem BioAssay (NCI)
